# In ChEMBL document CHEMBL1121833, “Structure--sweetness relationship of L-aspartyl dipeptide analogues. A receptor site topology” (J Med Chem, 1981):
# Test: Sweet potency as logarithm of sweet potency (log SP) relative to sucrose
# Assay type: functional
row,Structure (SMILES),Log SP
1,COC(=O)[C@H](CO)NC(=O)[C@H](N)CC(=O)O,1.49
2,CCOC(=O)[C@H](NC(=O)[C@@H](N)CC(=O)O)[C@@H](C)O,0.66
3,COC(=O)C(NC(=O)[C@@H](N)CC(=O)O)C(=O)OCC1C2(C)CCC(C2)C1(C)C (stereo partly drawn),4.79
4,CC(C)OC(=O)C[C@H](C)NC(=O)[C@H](N)CC(=O)O,0.84
5,COC(=O)CCCNC(=O)[C@H](N)CC(=O)O,0.13
6,COC(=O)[C@H](C)NC(=O)[C@H](N)CC(=O)O,1.2
7,CC1CCC1C(=O)OC[C@H](C)NC(=O)[C@H](N)CC(=O)O (stereo partly drawn),2.13
8,CC[C@@H](COC(=O)C1CC1)NC(=O)[C@H](N)CC(=O)O,1.38
9,CCOC(=O)C(NC(=O)[C@@H](N)CC(=O)O)C(=O)OC1CCCCC1C (stereo partly drawn),3.09
10,CCC[C@@H](NC(=O)[C@H](N)CC(=O)O)C(=O)OC,0.46
11,CC(C)C(=O)OCCNC(=O)[C@H](N)CC(=O)O,1.16
12,CCCOC(=O)CNC(=O)[C@H](N)CC(=O)O,0.98
13,COC[C@@H](COC(C)=O)NC(=O)[C@H](N)CC(=O)O,0.48
14,CC(C)C(=O)OC[C@H](C)NC(=O)[C@H](N)CC(=O)O,1.98
15,C[C@@H](COC(=O)C(C)(C)C)NC(=O)[C@H](N)CC(=O)O,2.28
16,CC(C)(C)OC(=O)CCNC(=O)[C@H](N)CC(=O)O,0.36
17,CCCC[C@H](C)NC(=O)[C@H](N)CC(=O)O,1.6
18,COC(=O)[C@@H](CC(=O)OC(C)(C)C)NC(=O)[C@H](N)CC(=O)O,1.3
19,COC(=O)CNC(=O)[C@H](N)CC(=O)O,0.68
20,CCSC[C@@H](NC(=O)[C@H](N)CC(=O)O)C(=O)OC,1.6
21,CCCOC(=O)[C@H](CC)NC(=O)[C@H](N)CC(=O)O,1.86
22,CCC(CC)OC(=O)[C@@H](NC(=O)[C@H](N)CC(=O)O)C(=O)OC (stereo in doubt; 199),3.06
23,COC(=O)[C@@H](CSC(C)C)NC(=O)[C@H](N)CC(=O)O,2.23

row,Structure (SMILES),Log SP
1,COC(=O)[C@H](NC(=O)[C@H](N)CC(=O)O)C(=O)OC(C)(C)C,2.03
2,C[C@@H](COc1ccccc1)NC(=O)[C@H](N)CC(=O)O,1.19
3,C[C@@H](CC1CCCCC1)NC(=O)[C@H](N)CC(=O)O,1.57
4,CC(C)CC[C@H](C)NC(=O)[C@H](N)CC(=O)O,1.85
5,CCCOC(=O)[C@H](NC(=O)[C@@H](N)CC(=O)O)[C@@H](C)O,2.08
6,CCC(=O)OC[C@H](CO)NC(=O)[C@H](N)CC(=O)O,1.99
7,CCC(=O)OC[C@@H](NC(=O)[C@H](N)CC(=O)O)C(C)C,1.6
8,COC(=O)C[C@H](C)NC(=O)[C@H](N)CC(=O)O,0.43
9,CCCC(C)OC(=O)CCNC(=O)[C@H](N)CC(=O)O (stereo partly drawn),0.68
10,CC(C)CCC(C)NC(=O)[C@H](N)CC(=O)O (stereo partly drawn),1.54
11,CCCC(=O)OC[C@H](CO)NC(=O)[C@H](N)CC(=O)O,0.58
12,CCCSC[C@@H](NC(=O)[C@H](N)CC(=O)O)C(=O)OC,2.11
13,CCC(=O)OC[C@H](COC)NC(=O)[C@H](N)CC(=O)O,1.21
14,CCOC(=O)[C@H](CO)NC(=O)[C@H](N)CC(=O)O,1.92
15,N[C@H](CC(=O)O)C(=O)NCCC(=O)OC1CCCCC1,1.22
16,CCC(=O)OC[C@@H](NC(=O)[C@H](N)CC(=O)O)C(=O)OC,1.53
17,CC(C)OC(=O)[C@H](NC(=O)[C@@H](N)CC(=O)O)[C@@H](C)O,1.93
18,CCC(CC)OC(=O)CCNC(=O)[C@H](N)CC(=O)O,0.6
19,CCCC(O)[C@H](NC(=O)[C@H](N)CC(=O)O)C(=O)OC (stereo in doubt; 57),0.75
20,CC(C)[C@@H](COC(=O)C1CCC1)NC(=O)[C@H](N)CC(=O)O,1.06
21,CC[C@@H](COC(=O)C1CCC1)NC(=O)[C@H](N)CC(=O)O,1.4
22,C[C@@H](O)[C@@H](NC(=O)[C@@H](N)CC(=O)O)C(=O)OC1CCCCC1,1.44
23,C[C@@H](COC(=O)C1CC1)NC(=O)[C@H](N)CC(=O)O,2.18

row,Structure (SMILES),Log SP
1,CC(C)OC(=O)[C@@H](NC(=O)[C@H](N)CC(=O)O)C(C)C,2.15
2,CC(C)CC(=O)OC[C@H](C)NC(=O)[C@H](N)CC(=O)O,2.08
3,COC(=O)CC[C@@H](NC(=O)[C@H](N)CC(=O)O)C(=O)OC,2
4,CC(C)C(=O)OC[C@H](CO)NC(=O)[C@H](N)CC(=O)O,1.48
5,COC(=O)[C@@H](COC(C)=O)NC(=O)[C@H](N)CC(=O)O,0.91
6,CCOC(=O)C(NC(=O)[C@H](N)CC(=O)O)C(=O)OCC,1.35
7,CCC(C)OC(=O)CCNC(=O)[C@H](N)CC(=O)O (stereo partly drawn),0.73
8,CCCCOC(=O)[C@H](CO)NC(=O)[C@H](N)CC(=O)O,1.75
9,CC(C)CC(=O)OC[C@H](CO)NC(=O)[C@H](N)CC(=O)O,1.3
10,CCCCOC(=O)[C@H](C)NC(=O)[C@H](N)CC(=O)O,0.9
11,COC(=O)[C@@H](Cc1ccc(O)cc1)NC(=O)[C@H](N)CC(=O)O,2.15
12,COC(=O)[C@H](NC(=O)[C@@H](N)CC(=O)O)[C@@H](C)O,0.71
13,C[C@H](O)[C@@H](NC(=O)[C@@H](N)CC(=O)O)C(=O)OC1CCCCC1,1.31
14,CCCC(=O)OC[C@@H](NC(=O)[C@H](N)CC(=O)O)C(=O)OC,1.43
15,CCC(C)[C@@H](NC(=O)[C@@H](N)CC(=O)O)C(=O)OC(C)C (stereo partly drawn),0.53
16,N[C@H](CC(=O)O)C(=O)N[C@@H](CO)COC(=O)C1CCCC1,0.92
17,CC(C)COC(=O)[C@H](NC(=O)[C@@H](N)CC(=O)O)[C@@H](C)O,1.97
18,CCOC(=O)[C@H](NC(=O)[C@H](N)CC(=O)O)C(=O)OC1CCCCC1,2.68
19,C[C@@H](COC(=O)C1CCCC1)NC(=O)[C@H](N)CC(=O)O,1.7
20,CCCOC(=O)[C@H](NC(=O)[C@@H](N)CC(=O)O)[C@H](C)O,1.51
21,CC(CNC(=O)[C@H](N)CC(=O)O)C(=O)OC1CCCC1 (stereo partly drawn),0.88
22,C=CC(=O)OC[C@H](C)NC(=O)[C@H](N)CC(=O)O,1.85
23,COC(=O)C(C)C[C@H](NC(=O)[C@@H](N)CC(=O)O)C(=O)OC (stereo partly drawn),1.15

row,Structure (SMILES),Log SP
1,N[C@H](CC(=O)O)C(=O)NCCOC(=O)C1CCC1,0.99
2,CCCCCC[C@@H](NC(=O)[C@H](N)CC(=O)O)C(=O)OC,2.07
3,N[C@H](CC(=O)O)C(=O)NCCOC(=O)C1CC1,1.03
4,CCC(C)C(=O)OC[C@H](CO)NC(=O)[C@H](N)CC(=O)O (stereo partly drawn),1.21
5,CC(C)OC(=O)[C@H](NC(=O)[C@@H](N)CC(=O)O)[C@H](C)O,0.91
6,COC(=O)C(NC(=O)[C@@H](N)CC(=O)O)C(=O)OC1CCCCC1C (stereo in doubt; 202),3.92
7,CCC(=O)OC[C@H](CC)NC(=O)[C@H](N)CC(=O)O,1.48
8,C[C@@H](Cc1ccco1)NC(=O)[C@H](N)CC(=O)O,1.16
9,CCC(=O)OCCNC(=O)[C@H](N)CC(=O)O,0.61
10,CCCOC(=O)[C@H](CCC)NC(=O)[C@H](N)CC(=O)O,1.56
11,CCC(C)C(=O)OC[C@H](C)NC(=O)[C@H](N)CC(=O)O (stereo partly drawn),2.08
12,CC(C)CC(=O)OCCNC(=O)[C@H](N)CC(=O)O,1.36
13,CCOC(=O)C(NC(=O)[C@@H](N)CC(=O)O)C(=O)OCC1C2(C)CCC(C2)C1(C)C (stereo partly drawn),4.05
14,CCC[C@H](NC(=O)[C@H](N)CC(=O)O)C(=O)OC(C)C,1.43
15,CC[C@@H](COC(=O)C(C)C)NC(=O)[C@H](N)CC(=O)O,1.38
16,N[C@H](CC(=O)O)C(=O)N[C@@H](CO)COC(=O)C1CCC1,1.71
17,CC(Cc1ccccc1)NC(=O)[C@H](N)CC(=O)O (stereo partly drawn),1.56
18,CCCCC[C@H](C)NC(=O)[C@H](N)CC(=O)O (stereo in doubt; 10),1.43
19,CCCCOC(=O)[C@H](NC(=O)[C@@H](N)CC(=O)O)[C@@H](C)O,1.41
20,CCCC(=O)OC[C@@H](NC(=O)[C@H](N)CC(=O)O)C(C)C,0.4
21,COC(=O)C[C@@H](NC(=O)[C@H](N)CC(=O)O)C(=O)OC,0.6
22,CC[C@H](NC(=O)[C@H](N)CC(=O)O)C(=O)OC(C)C,2.15
23,CCOC(=O)[C@H](NC(=O)[C@H](N)CC(=O)O)C(=O)OC1CCCC1,2.44

row,Structure (SMILES),Log SP
1,COC(=O)[C@H](NC(=O)[C@H](N)CC(=O)O)C(=O)OC1CCC(C)CC1 (stereo partly drawn),1.87
2,CC(C)OC(=O)CCNC(=O)[C@H](N)CC(=O)O,0.7
3,COC(=O)[C@H](NC(=O)[C@H](N)CC(=O)O)C(=O)OC1CCCCC1,3.14
4,C[C@@H](CC(=O)OC(C)(C)C)NC(=O)[C@H](N)CC(=O)O,0.68
5,CCOC(=O)C[C@H](C)NC(=O)[C@H](N)CC(=O)O (stereo in doubt; 128),1.16
6,CCCCCOC(=O)[C@H](C)NC(=O)[C@H](N)CC(=O)O,0.68
7,C[C@@H](COC(=O)C1CCC1)NC(=O)[C@H](N)CC(=O)O,2.24
8,N[C@H](CC(=O)O)C(=O)N[C@@H](CO)COC(=O)C1CC1,1.96
9,COC(=O)[C@H](NC(=O)[C@H](N)CC(=O)O)C(=O)OC1CCCC1,2.92
10,N[C@H](CC(=O)O)C(=O)NCCc1ccc(F)cc1,0.57
11,COC(=O)[C@H](Cc1ccccc1)NC(=O)[C@@H](N)CC(=O)O,2.11
12,COC(=O)[C@@H](COC(=O)C(C)(C)C)NC(=O)[C@H](N)CC(=O)O,1.81
13,CC(C)C(=O)OC[C@@H](NC(=O)[C@H](N)CC(=O)O)C(C)C,1.1
14,COC(=O)[C@@H](COC(C)(C)C)NC(=O)[C@H](N)CC(=O)O,2.15
15,COC(=O)[C@@H](COC(=O)C(C)C)NC(=O)[C@H](N)CC(=O)O,1.65
16,CC(C)OC(=O)[C@H](CO)NC(=O)[C@H](N)CC(=O)O,1.96
17,CC1CC1C(=O)OC[C@H](C)NC(=O)[C@H](N)CC(=O)O (stereo partly drawn),1.68
18,COC(=O)[C@@H](CCC(C)C)NC(=O)[C@H](N)CC(=O)O,2.11
19,COC(=O)C(NC(=O)[C@@H](N)CC(=O)O)C(=O)OC1CCCC(C)C1 (stereo partly drawn),3.02
20,CCCCC[C@H](C)NC(=O)[C@H](N)CC(=O)O (stereo in doubt; 12),1.56
21,CCC(CC)OC(=O)[C@@H](NC(=O)[C@H](N)CC(=O)O)C(=O)OC (stereo in doubt; 198),2.79
